# Data published in US20140303092A1 (CHIMERIX, INC., priority 2011, published 2014).
# Test: Study HDP-CDV-201: safety and tolerability (adverse events, laboratory abnormalities, discontinuations)
# Format: in vivo, human (adult allogeneic HSCT recipients)
# Conditions: 200 mg BIW
# Description: Clinical Studies of HDP-CDV were performed and described in detail in the following Examples. For example, HDP-CDV-201 is a placebo-controlled, dose-escalating trial in HSCT CMV (R+) recipients, evaluating the ability of HDP-CDV to prevent or control CMV infection was carried out. Five cohorts were established in which participants or subjects received either placebo or the HDP-CDV orally, in doses ranging from 40 mg weekly (QW) to 200 mg twice weekly (BIW). Subjects who were post-HSCT were enrolled at the time of engraftment and randomized to HDP-CDV or placebo (3 to 1 ratio) and received blinded therapy until approximately 100 day post-transplantation. HDP-CDV doses were 40 mg QW, 100 mg QW, 200 mg QW, 200 mg BIW and 100 mg BIW. Escalation to the next dose was decided by the data monitoring committee after review of the safety data from the previous Cohort. Subjects who developed CMV disease or CMV infection requiring pre-emptive therapy with local standard of care were discontinued from blinded therapy and followed for 4 weeks. Subjects who completed treatment with blinded therapy were followed for 8 weeks post-therapy.
# Data from Study HDP-CDV-201 also provided characterization of the safety and tolerability profile of HDP-CDV when administered for the prevention or control of CMV infection in high risk (R^+) post-HSCT adult subjects.
# The Safety population (SAFETY) included all randomized subjects who took at least one dose of study treatment. This population was used to summarize safety outcomes based on the treatment actually received, in cases where a subject was treated contrary to the randomization schedule.
# The safety and tolerability profile of HDP-CDV, including subject demographics and Baseline characteristics; the AE profile; and laboratory abnormalities of interest were analyzed in the cohorts followed in this investigation.
# Subjects completing the treatment period received a full course of study medication; those completing the entire study attended visits through 8 weeks of follow up. Subjects who discontinued treatment may have done so for protocol specified reasons (e.g. development of clinically significant CMV infection requiring preemptive treatment with excluded anti-CMV medications) or for other reasons (e.g., withdrawal, adverse events, loss to follow-up). The disposition of subjects in Study HDP-CDV-201 during the double-blind, placebo-controlled treatment period (through Week 11) is listed by dosing Cohort in TABLE 23.
# Adverse events were examined by severity to ensure that all safety signals were identified in this study population. Because of the frequency of events in HSCT recipients, particular attention was given to evaluation of Grade 3 […], 4 (severe), and 5 (fatal) adverse events.
# Only those preferred terms for which at least one Grade 3 or higher event was experienced in any treatment group are listed. Cytomegalovirus-related AEs are excluded from this analysis.
# HDP-CDV is a lipid conjugate of CDV. Because CDV is known to have adverse effects on renal function and bone marrow, decreased GFR and persistent neutropenia were identified as AEs of special interest. Key renal and hematological (TABLE 30) laboratory parameters were measured and listed below by Study HDP-CDV-201 treatment groups. TABLE 30 includes abnormal levels of serum creatinine, neutrophils, platelets, WBCs, and hemoglobin and includes data at Screening and during the treatment period.
# A common metric for unit based dosing of medications is by weight (mg/kg). When the distribution of weights was examined for all subjects participating in the study, the median was 78 kg and the lower 25th percentile weight was approximately 65 kg, which translates to a cut-off of ˜3 mg/kg for a 200 mg total weekly dose. Based upon this approach, a cut-off of 3 mg/kg was used to assess the frequency of diarrhea and associated GI AEs reported for the subjects in Cohorts 3 or 4a (TABLE 40).
structure (smiles),measurement,value
CCCCCCCCCCCCCCCCOCCCOP(=O)(O)COC(CO)Cn1ccc(N)nc1=O (stereo not drawn) [HDP-CDV],"TEAE Abdominal pain, Grade 3",0
same,"TEAE Abdominal pain, Grade 4",0
same,"TEAE Abdominal pain, Grade 5",0
same,"TEAE Acute GVHD, Frequency",24 (80.0%)
same,"TEAE Acute GVHD, Grade 2",8 (26.6%)
same,"TEAE Acute GVHD, Grade 3",10 (30.0%)
same,"TEAE Acute GVHD, Grade 4",2 (6.7%)
same,"TEAE Acute GVHD, Grade 5",3 (10.0%)
same,"TEAE Arthralgias, Frequency",1 (3.3%)
same,"TEAE Arthralgias, Grade 2",1 (3.3%)
same,"TEAE Arthralgias, Grade 3",0
same,"TEAE Arthralgias, Grade 4",0
same,"TEAE Arthralgias, Grade 5",0
same,"TEAE Back Pain, Frequency",3 (10.0%)
same,"TEAE Back Pain, Grade 2",1 (3.3%)
same,"TEAE Back Pain, Grade 3",0
same,"TEAE Back Pain, Grade 4",0
same,"TEAE Back Pain, Grade 5",0
same,"TEAE Decreased appetite, Frequency",5 (16.7%)
same,"TEAE Decreased appetite, Grade 2",4 (13.3%)
same,"TEAE Decreased appetite, Grade 3",0
same,"TEAE Decreased appetite, Grade 4",0
same,"TEAE Decreased appetite, Grade 5",0
same,"TEAE Diarrhea, Frequency",21 (70.0%)
same,"TEAE Diarrhea, Grade 2",8 (26.7%)
same,"TEAE Diarrhea, Grade 3",11 (36.7%)
same,"TEAE Diarrhea, Grade 4",0
same,"TEAE Diarrhea, Grade 5",0
same,"TEAE Fatigue, Frequency",0
same,"TEAE Fatigue, Grade 2",0
same,"TEAE Fatigue, Grade 3",0
same,"TEAE Fatigue, Grade 4",0
same,"TEAE Fatigue, Grade 5",0
same,"TEAE GGT Increased, Frequency",3 (10.0%)
same,"TEAE GGT Increased, Grade 2",0
same,"TEAE GGT Increased, Grade 3",1 (3.3%)
same,"TEAE GGT Increased, Grade 4",1 (3.3%)
same,"TEAE GGT Increased, Grade 5",0
same,"TEAE Generalized oedema, Frequency",3 (10.0%)
same,"TEAE Generalized oedema, Grade 2",0
same,"TEAE Generalized oedema, Grade 3",2 (6.7%)
same,"TEAE Generalized oedema, Grade 4",0
same,"TEAE Generalized oedema, Grade 5",0
same,"TEAE Hyperbilirubinaemia, Frequency",5 (16.7%)
same,"TEAE Hyperbilirubinaemia, Grade 2",1 (3.3%)
same,"TEAE Hyperbilirubinaemia, Grade 3",0
same,"TEAE Hyperbilirubinaemia, Grade 4",1 (3.3%)
same,"TEAE Hyperbilirubinaemia, Grade 5",0
same,"TEAE Hyperglycaemia, Frequency",8 (26.7%)
same,"TEAE Hyperglycaemia, Grade 2",5 (16.7%)
same,"TEAE Hyperglycaemia, Grade 3",2 (6.7%)
same,"TEAE Hyperglycaemia, Grade 4",0
same,"TEAE Hyperglycaemia, Grade 5",0
same,"TEAE Hyperkalemia, Frequency",3 (10.0%)
same,"TEAE Hyperkalemia, Grade 2",1 (3.3%)
same,"TEAE Hyperkalemia, Grade 3",1 (3.3%)
same,"TEAE Hyperkalemia, Grade 4",0
same,"TEAE Hyperkalemia, Grade 5",0
same,"TEAE Hypocalcaemia, Frequency",3 (10.0%)
same,"TEAE Hypocalcaemia, Grade 2",1 (3.3%)
same,"TEAE Hypocalcaemia, Grade 3",1 (3.3%)
same,"TEAE Hypocalcaemia, Grade 4",0
same,"TEAE Hypocalcaemia, Grade 5",0
same,"TEAE Hypokalaemia, Frequency",5 (16.7%)
same,"TEAE Hypokalaemia, Grade 2",1 (3.3%)
same,"TEAE Hypokalaemia, Grade 3",1 (3.3%)
same,"TEAE Hypokalaemia, Grade 4",0
same,"TEAE Hypokalaemia, Grade 5",0
same,"TEAE Hyponatraemia, Frequency",2 (6.7%)
same,"TEAE Hyponatraemia, Grade 2",0
same,"TEAE Hyponatraemia, Grade 3",0
same,"TEAE Hyponatraemia, Grade 4",0
same,"TEAE Hyponatraemia, Grade 5",0
same,"TEAE LFT Abnormal, Frequency",3 (10.0%)
same,"TEAE LFT Abnormal, Grade 2",1 (3.3%)
same,"TEAE LFT Abnormal, Grade 3",1 (3.3%)
same,"TEAE LFT Abnormal, Grade 4",0
same,"TEAE LFT Abnormal, Grade 5",0
same,"TEAE Leukocytosis, Frequency",3 (10.0%)
same,"TEAE Leukocytosis, Grade 2",1 (3.3%)
same,"TEAE Leukocytosis, Grade 3",0
same,"TEAE Leukocytosis, Grade 4",0
same,"TEAE Leukocytosis, Grade 5",0
same,"TEAE Nausea, Frequency",11 (36.7%)
same,"TEAE Nausea, Grade 2",6 (20.0%)
same,"TEAE Nausea, Grade 3",1 (3.3%)
same,"TEAE Nausea, Grade 4",0
same,"TEAE Nausea, Grade 5",0
same,"TEAE Neutropenia, Frequency",4 (13.3%)
same,"TEAE Neutropenia, Grade 2",0
same,"TEAE Neutropenia, Grade 3",1 (3.3%)
same,"TEAE Neutropenia, Grade 4",2 (6.7%)
same,"TEAE Neutropenia, Grade 5",0
same,"TEAE Pneumonia, Frequency",1 (3.3%)
same,"TEAE Pneumonia, Grade 2",0
same,"TEAE Pneumonia, Grade 3",1 (3.3%)
same,"TEAE Pneumonia, Grade 4",0
same,"TEAE Pneumonia, Grade 5",0
same,"TEAE Pyrexia, Frequency",2 (6.7%)
same,"TEAE Pyrexia, Grade 2",0
same,"TEAE Pyrexia, Grade 3",0
same,"TEAE Pyrexia, Grade 4",0
same,"TEAE Pyrexia, Grade 5",0
same,"TEAE Renal Failure, Frequency",0
same,"TEAE Renal Failure, Grade 2",0
same,"TEAE Renal Failure, Grade 3",0
same,"TEAE Renal Failure, Grade 4",0
same,"TEAE Renal Failure, Grade 5",0
same,"TEAE Staphylococcal Bacteremia, Frequency",1 (3.3%)
same,"TEAE Staphylococcal Bacteremia, Grade 2",0
same,"TEAE Staphylococcal Bacteremia, Grade 3",1 (3.3%)
